Source: patent US8604023B2, “1,4-benzodiazepinone compounds and their use in treating cancer” (The Regents of the University of Michigan, priority 2009, dated 2013)

Tests used:
Test in all cases: cancer cell growth inhibition (SRB)
Format in all cases: cell-based, human
T-47D = details: Breast Cancer
HCC-2998 = details: Colon Cancer
HL-60(TB) = details: Leukemia
CCRF-CEM = details: Leukemia
M14 = details: Melanoma
NCI/ADR-RES = details: Breast Cancer
KM12 = details: Colon Cancer
HCT-116 = details: Colon Cancer
HS 578T = details: Breast Cancer
NCI-H522 = details: Non-Small Cell Lung Cancer
LOXIMVI = details: Melanoma
IGROV1 = details: Ovarian Cancer
HOP-62 = details: Non-Small Cell Lung Cancer
786-0 = details: Renal Cancer
HCT-15 = details: Colon Cancer
RPMI-8226 = details: Leukemia
MDA-MB-435 = details: Breast Cancer
A498 = details: Renal Cancer
A549/ATCC = details: Non-Small Cell Lung Cancer
SNB-75 = details: CNS Cancer
MCF7 = details: Breast Cancer
COLO 205 = details: Colon Cancer
OVCAR-4 = details: Ovarian Cancer
UACC-257 = details: Melanoma
UACC-62 = details: Melanoma
SR = details: Leukemia
MOLT-4 = details: Leukemia
PC-3 = details: Prostate Cancer
SF-268 = details: CNS Cancer
MDA-MB-231/ATCC = details: Breast Cancer
CAKI-1 = details: Renal Cancer

CN1C(=O)C(Cc2ccc3ccccc3c2)N=C(c2cn[nH]c2)c2cc(Cl)ccc21 (stereo not shown) [Compound V-38]
growth inhibition of the cancer cells (T-47D): + (less than 40% growth inhibition of the cancer cells)
growth inhibition of the cancer cells (HCC-2998): +++ (at least 75% growth inhibition of the cancer cells)
growth inhibition of the cancer cells (HL-60(TB)): + (less than 40% growth inhibition of the cancer cells)
growth inhibition of the cancer cells (CCRF-CEM): + (less than 40% growth inhibition of the cancer cells)
growth inhibition of the cancer cells (M14): +++ (at least 75% growth inhibition of the cancer cells)
growth inhibition of the cancer cells (NCI/ADR-RES): + (less than 40% growth inhibition of the cancer cells)
growth inhibition of the cancer cells (KM12): +++ (at least 75% growth inhibition of the cancer cells)
growth inhibition of the cancer cells (HCT-116): +++ (at least 75% growth inhibition of the cancer cells)
growth inhibition of the cancer cells (HS 578T): + (less than 40% growth inhibition of the cancer cells)
growth inhibition of the cancer cells (NCI-H522): ++ (40%-75% growth inhibition of the cancer cells)
growth inhibition of the cancer cells (LOXIMVI): +++ (at least 75% growth inhibition of the cancer cells)
growth inhibition of the cancer cells (IGROV1): +++ (at least 75% growth inhibition of the cancer cells)
growth inhibition of the cancer cells (HOP-62): +++ (at least 75% growth inhibition of the cancer cells)
growth inhibition of the cancer cells (786-0): +++ (at least 75% growth inhibition of the cancer cells)
growth inhibition of the cancer cells (HCT-15): ++ (40%-75% growth inhibition of the cancer cells)
growth inhibition of the cancer cells (RPMI-8226): + (less than 40% growth inhibition of the cancer cells)
growth inhibition of the cancer cells (MDA-MB-435): + (less than 40% growth inhibition of the cancer cells)
growth inhibition of the cancer cells (A498): +++ (at least 75% growth inhibition of the cancer cells)
growth inhibition of the cancer cells (A549/ATCC): ++ (40%-75% growth inhibition of the cancer cells)
growth inhibition of the cancer cells (SNB-75): +++ (at least 75% growth inhibition of the cancer cells)
growth inhibition of the cancer cells (MCF7): ++ (40%-75% growth inhibition of the cancer cells)
growth inhibition of the cancer cells (COLO 205): ++ (40%-75% growth inhibition of the cancer cells)
growth inhibition of the cancer cells (OVCAR-4): ++ (40%-75% growth inhibition of the cancer cells)
growth inhibition of the cancer cells (UACC-257): +++ (at least 75% growth inhibition of the cancer cells)
growth inhibition of the cancer cells (UACC-62): +++ (at least 75% growth inhibition of the cancer cells)
growth inhibition of the cancer cells (SR): − (an apparent increase in cancer cell growth upon administration of the test compound)
growth inhibition of the cancer cells (MOLT-4): + (less than 40% growth inhibition of the cancer cells)
growth inhibition of the cancer cells (PC-3): + (less than 40% growth inhibition of the cancer cells)
growth inhibition of the cancer cells (SF-268): +++ (at least 75% growth inhibition of the cancer cells)
growth inhibition of the cancer cells (MDA-MB-231/ATCC): + (less than 40% growth inhibition of the cancer cells)
growth inhibition of the cancer cells (CAKI-1): + (less than 40% growth inhibition of the cancer cells)
